Reference: patent US8030443B2, “Squamous cell carcinoma antigen-derived peptide binding to HLA-A24 molecule” (Kurume University, priority 2005, dated 2011)

Tested on: PBMCs from HLA-A24^+ cancer patients and HDs
Assay: Induction of peptide-specific CTLs from PBMCs, IFN-γ ELISA against peptide-pulsed C1R-A24 cells
Assay type: cell-based, human
Conditions: for Total: healthy donors with induction of peptide-specific CTLs / donors tested: 8 HLA-A24^+ healthy donors; for Total: healthy donors with induction of peptide-specific CTLs / donors tested / Total: cancer patients with induction of peptide-specific CTLs / patients tested: positive when more than 50 pg/ml IFN-γ with p<0.05; for Total: cancer patients with induction of peptide-specific CTLs / patients tested: 20 HLA-A24^+ cancer patients; for IFN-γ Production: HIV peptide background subtracted, only significant values shown, — otherwise
Protocol: PBMCs from HLA-A24^+ cancer patients and HDs were used for the CTL induction assay. For the induction of peptide-specific CTLs, PBMCs (1.5×10^5 cells/well) were incubated with 10 μg/ml of each peptide in four different wells of a 96-well microculture plate (Nunc) in 200 μl of culture medium containing interleukin (IL)-2, as reported previously (Non-Patent Literature 18). Every 3 or 4 days, half the culture medium was removed and replaced with new medium containing the corresponding peptide (20 μg/ml) and 100 U/ml IL-2. On the 14th day, the cells from each well were independently harvested, washed, separated into four wells, and tested for their ability to produce interferon (IFN)-γ in response to C1R-A24 cells pulsed with a corresponding peptide or a negative control HIV peptide in the duplicate assays. C1R-A24 is an HLA-A2402-expressing subline of C1R lymphoma (Dr. M. Takiguchi, Kumamoto University, Japan). After an 18-h incubation of C1RA-24, the supernatant was collected, and the level of IFN-γ was determined by ELISA.
Whether or not the SCCA107, SCCA112, SCCA215, and SCCA286 peptides had the potential to induce peptide-specific CTLs from the PBMCs of 20 HLA-A24^+ cancer patients and 8 HLA-A24^+ healthy donors was investigated. The group of twenty cancer patients consisted of 4 esophageal SCC patients, 4 cervical SCC patients, 4 lung cancer patients (2 adenocarcinomas, one small cell carcinoma, and one squamous cell carcinoma), 4 gastric adenocarcinoma patients, and 4 colon adenocarcinoma patients. The assay was carried out in quadruplicate. The cultured cells in one well were separated into 4 wells, and two wells were used for the SCCA peptide-pulsed C1R-A24 cells, and the other two were used for the HIV peptide-pulsed C1R-A24 cells.

Sequence	Total: healthy donors with induction of peptide-specific CTLs / donors tested	Total: cancer patients with induction of peptide-specific CTLs / patients tested	Total: cancer patients with induction of peptide-specific CTLs / patients tested (listed as SCCA286)	IFN-γ Production (PBMCs of HLA-A24^+ patient 4, Esophagus) [pg/mL]	IFN-γ Production (PBMCs of HLA-A24^+ patient 7, Cervix of uterus) [pg/mL]	Total: cancer patients with induction of peptide-specific CTLs / patients tested (listed as SCCA107)	IFN-γ Production (PBMCs of HLA-A24^+ healthy donor 7) [pg/mL]	IFN-γ Production (PBMCs of HLA-A24^+ patient 2, Esophagus) [pg/mL]	IFN-γ Production (PBMCs of HLA-A24^+ patient 6, Cervix of uterus) [pg/mL]	IFN-γ Production (PBMCs of HLA-A24^+ patient 13, Stomach) [pg/mL]
RFKVEESYDL (SCCA 286-295 peptide) [SCCA-derived peptide, position 286-295]	0/8	3/20	3 of 20	97	169					
LFGEKTYLFL (SCCA 107-116 peptide) [SCCA-derived peptide, position 107-116]	1/8	3/20				3 of 20	259	84	105	500
